Test results: ChEMBL document CHEMBL6182862, “Discovery of novel azetidine-based imidazopyridines as selective and orally bioavailable inhibitors of phosphodiesterase 10A for the treatment of pulmonary arterial hypertension” (Eur J Med Chem, 2025)

Tests used:
[1] = biological target: Cytochrome P450 3A4 (Homo sapiens, UniProt P08684); experiment: Inhibition of CYP3A4 (unknown origin); format: ADME
[2] = in vitro; settings: PAMPA
[3] = in vitro; settings: rat, liver microsomes
[4] = biological target: cAMP and cAMP-inhibited cGMP 3',5'-cyclic phosphodiesterase 10A (Homo sapiens, UniProt Q9Y233)
[5] = biological target: Dual specificity calcium/calmodulin-dependent 3',5'-cyclic nucleotide phosphodiesterase 1C (Homo sapiens, UniProt Q14123); experiment: Inhibition of PDE1C (147 to 531 residues) (unknown origin) using 3H-cGMP/3H-cAMP as substrate incubated for 15 mins by liquid scintillation counter analysis
Chain of Dual specificity calcium/calmodulin-dependent 3',5'-cyclic nucleotide phosphodiesterase 1C (Q14123 whole entry, the tested form may be a part): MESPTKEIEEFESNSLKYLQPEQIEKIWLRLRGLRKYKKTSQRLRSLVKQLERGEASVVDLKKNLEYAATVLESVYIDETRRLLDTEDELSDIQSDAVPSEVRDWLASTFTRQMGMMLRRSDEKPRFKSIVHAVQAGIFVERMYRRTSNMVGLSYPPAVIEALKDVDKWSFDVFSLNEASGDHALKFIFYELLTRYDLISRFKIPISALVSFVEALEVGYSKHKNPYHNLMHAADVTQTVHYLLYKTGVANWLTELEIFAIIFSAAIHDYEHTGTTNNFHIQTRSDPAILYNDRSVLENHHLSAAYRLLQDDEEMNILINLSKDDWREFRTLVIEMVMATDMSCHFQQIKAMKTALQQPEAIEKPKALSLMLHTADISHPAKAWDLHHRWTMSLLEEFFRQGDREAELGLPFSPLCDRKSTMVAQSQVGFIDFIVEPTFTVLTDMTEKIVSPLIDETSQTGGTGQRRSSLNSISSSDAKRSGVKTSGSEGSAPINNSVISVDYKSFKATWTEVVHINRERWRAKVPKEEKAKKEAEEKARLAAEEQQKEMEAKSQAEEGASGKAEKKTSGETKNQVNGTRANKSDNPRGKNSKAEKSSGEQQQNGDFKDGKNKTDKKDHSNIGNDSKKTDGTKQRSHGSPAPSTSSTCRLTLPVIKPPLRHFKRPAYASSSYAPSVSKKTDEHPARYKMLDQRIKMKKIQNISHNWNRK

[6] = biological target: Cytochrome P450 2C19 (Homo sapiens, UniProt P33261); experiment: Inhibition of CYP2C19 (unknown origin); format: ADME
Chain of Cytochrome P450 2C19 (P33261 whole entry): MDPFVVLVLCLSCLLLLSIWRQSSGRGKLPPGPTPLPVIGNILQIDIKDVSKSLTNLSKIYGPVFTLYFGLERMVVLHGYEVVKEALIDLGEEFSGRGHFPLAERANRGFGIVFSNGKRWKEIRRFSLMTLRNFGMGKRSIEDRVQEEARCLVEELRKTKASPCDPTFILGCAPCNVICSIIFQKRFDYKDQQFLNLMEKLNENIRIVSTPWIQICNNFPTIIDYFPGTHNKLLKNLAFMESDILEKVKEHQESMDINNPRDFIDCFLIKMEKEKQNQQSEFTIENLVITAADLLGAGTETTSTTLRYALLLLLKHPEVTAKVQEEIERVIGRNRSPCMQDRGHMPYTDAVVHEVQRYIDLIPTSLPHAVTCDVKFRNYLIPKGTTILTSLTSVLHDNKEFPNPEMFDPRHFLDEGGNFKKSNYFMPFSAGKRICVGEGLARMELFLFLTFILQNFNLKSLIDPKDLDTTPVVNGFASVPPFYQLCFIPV

[7] = biological target: Cytochrome P450 2D6 (Homo sapiens, UniProt P10635); experiment: Inhibition of CYP2D6 (unknown origin); format: ADME
[8] = biological target: Cone cGMP-specific 3',5'-cyclic phosphodiesterase subunit alpha' (Homo sapiens, UniProt P51160); experiment: Inhibition of PDE6C (1 to 858 residues) (unknown origin) using 3H-cGMP as substrate incubated for 15 mins by liquid scintillation counter analysis
Chain of Cone cGMP-specific 3',5'-cyclic phosphodiesterase subunit alpha' (P51160 whole entry, the tested form may be a part): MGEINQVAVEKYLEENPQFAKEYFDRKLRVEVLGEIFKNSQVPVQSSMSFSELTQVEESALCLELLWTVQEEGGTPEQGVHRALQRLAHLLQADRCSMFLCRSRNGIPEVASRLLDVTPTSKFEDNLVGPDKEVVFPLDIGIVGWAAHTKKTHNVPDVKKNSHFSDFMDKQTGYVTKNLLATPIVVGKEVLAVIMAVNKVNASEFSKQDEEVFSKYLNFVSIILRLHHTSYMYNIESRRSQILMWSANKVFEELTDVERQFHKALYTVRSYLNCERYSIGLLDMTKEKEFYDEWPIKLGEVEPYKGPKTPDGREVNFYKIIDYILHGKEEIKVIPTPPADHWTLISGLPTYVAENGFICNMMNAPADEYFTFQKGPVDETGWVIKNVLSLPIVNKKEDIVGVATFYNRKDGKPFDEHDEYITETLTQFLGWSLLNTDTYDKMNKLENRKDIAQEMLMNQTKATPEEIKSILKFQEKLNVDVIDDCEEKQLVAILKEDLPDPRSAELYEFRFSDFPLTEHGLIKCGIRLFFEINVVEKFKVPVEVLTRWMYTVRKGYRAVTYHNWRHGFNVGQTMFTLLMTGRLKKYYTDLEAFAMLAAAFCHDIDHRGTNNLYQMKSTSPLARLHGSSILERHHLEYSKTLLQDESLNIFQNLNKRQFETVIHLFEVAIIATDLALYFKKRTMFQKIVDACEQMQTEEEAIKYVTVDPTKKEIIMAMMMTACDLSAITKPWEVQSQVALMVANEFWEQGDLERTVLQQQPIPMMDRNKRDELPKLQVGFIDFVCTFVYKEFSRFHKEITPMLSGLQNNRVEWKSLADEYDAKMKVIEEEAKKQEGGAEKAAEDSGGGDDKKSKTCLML

[9] = biological target: cGMP-specific 3',5'-cyclic phosphodiesterase (Homo sapiens, UniProt O76074); experiment: Inhibition of PDE5A1 (535 to 860 residues) (unknown origin) extracted from Escherichia coli BL21 using 3H-cGMP as substrate incubated for 15 mins by liquid scintillation counter analysis
[10] = biological target: Dual 3',5'-cyclic-AMP and -GMP phosphodiesterase 11A (Homo sapiens, UniProt Q9HCR9); experiment: Inhibition of PDE11A4 (588 to 911 residues) (unknown origin) using 3H-cGMP/3H-cAMP as substrate incubated for 15 mins by liquid scintillation counter analysis
[11] = biological target: cGMP-inhibited 3',5'-cyclic phosphodiesterase 3A (Homo sapiens, UniProt Q14432); experiment: Inhibition of PDE3A (679 to 1087 residues) (unknown origin) using 3H-cAMP as substrate incubated for 15 mins by liquid scintillation counter analysis
Chain of cGMP-inhibited 3',5'-cyclic phosphodiesterase 3A (Q14432 whole entry, the tested form may be a part): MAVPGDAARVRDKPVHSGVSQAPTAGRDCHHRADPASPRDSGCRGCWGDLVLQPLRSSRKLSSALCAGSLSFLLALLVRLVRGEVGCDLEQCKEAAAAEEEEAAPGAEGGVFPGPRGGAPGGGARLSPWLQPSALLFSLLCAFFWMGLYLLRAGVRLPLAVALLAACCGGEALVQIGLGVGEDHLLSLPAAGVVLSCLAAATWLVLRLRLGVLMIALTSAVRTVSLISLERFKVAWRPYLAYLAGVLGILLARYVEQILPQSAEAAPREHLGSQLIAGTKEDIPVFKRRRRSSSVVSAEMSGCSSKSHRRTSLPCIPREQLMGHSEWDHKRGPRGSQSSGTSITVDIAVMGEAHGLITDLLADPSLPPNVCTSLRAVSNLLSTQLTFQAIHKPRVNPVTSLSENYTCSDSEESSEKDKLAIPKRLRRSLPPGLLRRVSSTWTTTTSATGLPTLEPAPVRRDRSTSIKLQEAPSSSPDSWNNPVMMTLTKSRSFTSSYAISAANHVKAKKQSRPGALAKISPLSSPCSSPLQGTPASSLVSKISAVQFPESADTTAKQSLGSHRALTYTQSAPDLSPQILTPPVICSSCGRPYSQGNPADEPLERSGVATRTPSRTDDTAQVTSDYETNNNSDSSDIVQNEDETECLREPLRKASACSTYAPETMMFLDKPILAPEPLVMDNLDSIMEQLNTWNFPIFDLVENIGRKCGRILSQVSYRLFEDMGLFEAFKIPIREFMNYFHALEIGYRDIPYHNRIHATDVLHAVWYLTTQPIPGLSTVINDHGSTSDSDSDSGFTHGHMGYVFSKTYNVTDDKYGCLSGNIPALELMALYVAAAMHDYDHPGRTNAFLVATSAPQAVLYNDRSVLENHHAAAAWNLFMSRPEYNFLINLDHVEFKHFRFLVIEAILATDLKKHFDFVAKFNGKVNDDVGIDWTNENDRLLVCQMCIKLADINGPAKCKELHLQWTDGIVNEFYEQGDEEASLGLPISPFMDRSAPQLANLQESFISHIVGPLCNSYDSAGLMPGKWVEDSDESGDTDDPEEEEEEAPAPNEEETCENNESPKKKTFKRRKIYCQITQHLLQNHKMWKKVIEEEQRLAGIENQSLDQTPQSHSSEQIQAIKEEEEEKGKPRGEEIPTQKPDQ

[12] = biological target: 3',5'-cyclic-AMP phosphodiesterase 4D (Homo sapiens, UniProt Q08499); experiment: Inhibition of PDE4D (86 to 413 residues) (unknown origin) using 3H-cAMP as substrate incubated for 15 mins by liquid scintillation counter analysis
Chain of 3',5'-cyclic-AMP phosphodiesterase 4D (Q08499 whole entry, the tested form may be a part): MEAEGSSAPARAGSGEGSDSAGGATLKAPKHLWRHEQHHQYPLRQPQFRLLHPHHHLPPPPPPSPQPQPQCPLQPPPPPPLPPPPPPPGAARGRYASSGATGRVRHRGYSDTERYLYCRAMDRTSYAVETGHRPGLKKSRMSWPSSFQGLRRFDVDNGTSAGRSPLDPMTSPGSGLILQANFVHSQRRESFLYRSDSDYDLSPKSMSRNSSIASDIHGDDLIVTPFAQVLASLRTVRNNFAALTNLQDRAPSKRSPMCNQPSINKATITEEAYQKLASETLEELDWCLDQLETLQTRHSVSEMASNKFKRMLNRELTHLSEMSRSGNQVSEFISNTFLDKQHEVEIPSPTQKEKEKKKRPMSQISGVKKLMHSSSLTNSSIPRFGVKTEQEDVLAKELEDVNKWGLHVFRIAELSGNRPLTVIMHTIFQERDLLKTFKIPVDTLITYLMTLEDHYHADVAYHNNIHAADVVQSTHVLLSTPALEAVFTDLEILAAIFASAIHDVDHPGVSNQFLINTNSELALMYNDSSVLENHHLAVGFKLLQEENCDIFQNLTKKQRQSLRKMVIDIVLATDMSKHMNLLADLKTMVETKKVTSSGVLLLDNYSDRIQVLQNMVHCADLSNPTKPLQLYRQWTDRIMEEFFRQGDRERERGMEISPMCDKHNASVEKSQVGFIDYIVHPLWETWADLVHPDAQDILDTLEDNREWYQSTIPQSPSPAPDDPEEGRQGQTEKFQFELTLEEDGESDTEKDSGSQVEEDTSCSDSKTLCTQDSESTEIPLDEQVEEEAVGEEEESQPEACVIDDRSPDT

[13] = biological target: T1, Cytochrome P450 1A2 (Homo sapiens, UniProt P05177); experiment: Inhibition of CYP1A2 (unknown origin); format: ADME
T1 sequence (P05177 whole entry): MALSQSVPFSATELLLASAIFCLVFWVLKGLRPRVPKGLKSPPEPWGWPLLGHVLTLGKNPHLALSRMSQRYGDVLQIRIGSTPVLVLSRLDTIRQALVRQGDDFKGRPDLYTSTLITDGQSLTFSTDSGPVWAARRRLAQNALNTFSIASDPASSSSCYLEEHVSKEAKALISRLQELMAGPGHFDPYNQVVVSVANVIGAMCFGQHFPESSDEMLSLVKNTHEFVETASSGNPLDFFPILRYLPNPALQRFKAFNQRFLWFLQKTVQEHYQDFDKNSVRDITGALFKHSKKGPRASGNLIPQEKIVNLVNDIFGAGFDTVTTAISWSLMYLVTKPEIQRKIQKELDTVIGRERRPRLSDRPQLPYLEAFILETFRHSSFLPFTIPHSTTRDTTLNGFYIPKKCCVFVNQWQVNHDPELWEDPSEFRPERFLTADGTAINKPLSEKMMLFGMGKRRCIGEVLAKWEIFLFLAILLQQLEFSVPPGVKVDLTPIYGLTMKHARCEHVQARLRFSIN

[14] = biological target: High affinity cGMP-specific 3',5'-cyclic phosphodiesterase 9A (Homo sapiens, UniProt O76083); experiment: Inhibition of recombinant PDE9A2 (181 to 506 residues) (unknown origin) extracted from Escherichia coli BL21 using 3H-cGMP as substrate incubated for 15 mins by liquid scintillation counter analysis
[15] = biological target: Cytochrome P450 2C9 (Homo sapiens, UniProt P11712); experiment: Inhibition of CYP2C9 (unknown origin); format: ADME
[16] = biological target: High affinity 3',5'-cyclic-AMP phosphodiesterase 7A (Homo sapiens, UniProt Q13946); experiment: Inhibition of PDE7A1 (130 to 482 residues) (unknown origin) using 3H-cAMP as substrate incubated for 15 mins by liquid scintillation counter analysis
Chain of High affinity 3',5'-cyclic-AMP phosphodiesterase 7A (Q13946 whole entry, the tested form may be a part): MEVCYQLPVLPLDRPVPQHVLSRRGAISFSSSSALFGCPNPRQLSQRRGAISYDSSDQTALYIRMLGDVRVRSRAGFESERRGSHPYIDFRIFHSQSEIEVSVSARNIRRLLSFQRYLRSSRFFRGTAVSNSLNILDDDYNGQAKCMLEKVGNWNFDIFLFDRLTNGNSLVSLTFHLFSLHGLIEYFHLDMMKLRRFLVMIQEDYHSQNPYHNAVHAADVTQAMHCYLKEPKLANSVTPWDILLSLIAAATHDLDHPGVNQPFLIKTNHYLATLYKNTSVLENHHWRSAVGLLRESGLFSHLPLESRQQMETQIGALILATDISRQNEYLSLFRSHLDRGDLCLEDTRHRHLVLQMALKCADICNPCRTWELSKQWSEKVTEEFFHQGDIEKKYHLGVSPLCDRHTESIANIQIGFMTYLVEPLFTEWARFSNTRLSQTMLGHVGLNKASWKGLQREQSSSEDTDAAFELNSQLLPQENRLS

[17] = biological target: cGMP-dependent 3',5'-cyclic phosphodiesterase (Homo sapiens, UniProt O00408); experiment: Inhibition of PDE2A (580 to 919 residues) (unknown origin) using 3H-cGMP as substrate incubated for 15 mins by liquid scintillation counter analysis

Chain of Cytochrome P450 3A4 (P08684 whole entry): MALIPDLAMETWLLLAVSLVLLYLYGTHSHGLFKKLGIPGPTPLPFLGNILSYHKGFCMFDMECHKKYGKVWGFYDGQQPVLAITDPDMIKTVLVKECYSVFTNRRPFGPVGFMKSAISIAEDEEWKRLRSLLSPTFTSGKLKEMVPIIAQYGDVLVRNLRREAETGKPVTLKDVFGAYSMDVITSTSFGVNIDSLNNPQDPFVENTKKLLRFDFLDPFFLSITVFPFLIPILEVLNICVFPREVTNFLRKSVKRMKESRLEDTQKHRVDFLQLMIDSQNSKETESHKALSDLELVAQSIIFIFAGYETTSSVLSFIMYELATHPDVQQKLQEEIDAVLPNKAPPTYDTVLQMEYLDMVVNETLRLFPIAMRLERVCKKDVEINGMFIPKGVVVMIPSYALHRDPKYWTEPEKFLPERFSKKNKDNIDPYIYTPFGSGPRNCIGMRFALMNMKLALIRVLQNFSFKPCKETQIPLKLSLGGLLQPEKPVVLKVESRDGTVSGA

Compound | IC50 [1] [µM] | Papp [2] [×10⁻⁶ cm/s] | half-life [3] [min] | IC50 [4] [µM] | IC50 [5] [µM] | IC50 [6] [µM] | IC50 [7] [µM] | IC50 [8] [µM] | IC50 [9] [µM] | IC50 [10] [µM] | IC50 [11] [µM] | IC50 [12] [µM] | IC50 [13] [µM] | IC50 [14] [µM] | IC50 [15] [µM] | IC50 [16] [µM] | IC50 [17] [µM]
Cc1ccc2c(c1)nc(/C=C/c1cccc3cccnc13)n2-c1cccc(OCCCN2CCN(C)CC2)c1 | 0.21 | 1.47 | 25 | – | – | – | – | – | – | – | – | – | – | – | – | – | –
Cc1ccc2c(c1)nc(C1CN(c3nc(Cl)nc4ccccc34)C1)n2-c1ccccc1 | – | – | 0.72 | 0.0312 | – | – | – | – | – | – | – | – | – | – | – | – | –
CCOC(=O)c1c(C2CN(c3cc(C(=O)NCCN(CC)CC)c4ccccc4n3)C2)nc2ccccn12 | > 30 | – | – | – | > 10 | > 30 | 9.7 | > 10 | > 10 | > 10 | > 10 | 1.28 | > 30 | > 10 | > 30 | > 10 | > 10
